Data published in BindingDB's records for doi:10.1074/jbc.M114.559062 (Case Western Reserve University School of Medicine, 2014).

Columns and labels:
[1] = target: T1, Fatty acid-binding protein 5-ANS (Mus musculus, UniProt Q05816); assay: Fluorescence Competition Assay
T1 sequence (Q05816 whole entry): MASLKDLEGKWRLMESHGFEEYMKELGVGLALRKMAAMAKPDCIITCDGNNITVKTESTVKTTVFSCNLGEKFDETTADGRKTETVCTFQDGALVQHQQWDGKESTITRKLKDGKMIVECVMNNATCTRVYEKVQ
Method: (§1) The method entails two steps [Lin et al., Biochemistry, 38:185-190]. In the first step, the Kd for association of FABP5 with the fluorescent lipid probe anilinonaphtalene-8-sulfonic acid (ANS) was measured by fluorescence titrations. Kd values for nonfluorescent ligands were then measured by monitoring their ability to compete with the probe for binding. FABP5 was precomplexed with ANS and titrated with ligands. Ligand binding was followed by monitoring the decrease in fluorescence upon displacement of the probe from the protein.

[2] = target: T2, Fatty acid-binding protein 5 (Mus musculus, UniProt Q05816); assay: Fluorescence Competition Assay
T2 sequence (Q05816 whole entry): T1 sequence (Q05816 whole entry)
Method: as §1

| SMILES | Kd [1] | Kd [2] |
| --- | --- | --- |
| CCCCC/C=C\C/C=C\C/C=C\C/C=C\CCCC(=O)O [[1-14C]Arachidonic acid] | 0.0421 µM | – |
| CCCCC/C=C\C/C=C\C/C=C\C/C=C\CCCC(=O)NCCO [Arachidonoyl ethanolamide] | 0.1 µM | – |
| O=S(=O)(O)c1cccc2cccc(Nc3ccccc3)c12 [ANS] | – | 0.07 µM |
